Values of other authors in patent publication US20120100040A1, “COMPOSITION FOR S[…]” (Bakteriefritt AS, priority 2009, published 2012).

Details: rat, orally

## CS(C)(=O)=O [dimethylsulfone]
  LD50: > 5000 mg/kg
